Results from patent US12624018B1, “Inhibitors of RIPK2 and medical uses thereof” (Odyssey Therapeutics, Inc., priority 2022, dated 2026).

Each molecule was assayed against T1, RIPK2 enzyme (Homo sapiens, UniProt O43353) (assay: RIPK2 inhibition (ADP-Glo Kinase Assay)). Details: RIPK2 5 nM, ATP 150 μM, MBP substrate, read-out: RIPK2 IC50.
T1 construct: purchased Carna 09-128
Format: biochemical
Summary of the method: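 Human RIPK2 (5 nM) preincubated with compound 30 min at room temperature in 50 mM HEPES pH 7.5, 10 mM MgCl2, 2 mM DTT, 1 mM EGTA, 0.01% Brij-35, 0.05% BSA; native swine MBP as substrate. ADP formed quantified by ADP-Glo luminescence; percent inhibition relative to DMSO and no-enzyme controls.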

T1 sequence (O43353 1-299 limits assumed): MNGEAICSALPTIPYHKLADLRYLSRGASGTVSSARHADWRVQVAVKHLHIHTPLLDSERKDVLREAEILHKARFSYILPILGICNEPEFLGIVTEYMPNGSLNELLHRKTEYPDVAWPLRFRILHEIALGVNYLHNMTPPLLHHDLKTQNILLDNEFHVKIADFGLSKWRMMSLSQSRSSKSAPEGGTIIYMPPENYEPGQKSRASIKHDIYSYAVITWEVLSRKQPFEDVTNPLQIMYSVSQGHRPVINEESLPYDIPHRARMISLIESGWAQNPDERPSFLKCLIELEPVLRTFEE

Structure (SMILES)	IC50 [nM]
CC(C)(C)c1cc(NC(=O)Cc2ncc(Oc3ncnc4ccc(F)cc34)cc2F)ncn1 [Compound 52, N-(6-(tert-butyl)pyrimidin-4-yl)-2-(3-fluoro-5-((6-fluoroquinazolin-4-yl)oxy)pyridin-2-yl)acetamide]	54.1
Cc1nc(NC(=O)Cc2ncc(Oc3ncnc4ccc(F)cc34)cc2F)cc(C(C)(C)C)n1 [Compound 53, N-(6-(tert-butyl)-2-methylpyrimidin-4-yl)-2-(3-fluoro-5-((6-fluoroquinazolin-4-yl)oxy)pyridin-2-yl)acetamide]	225
Cc1cc(CC(=O)Nc2cc(C(C)(C)C)ncn2)ccc1Oc1ncnc2ccc(F)cc12 [Compound 54, N-(6-(tert-butyl)pyrimidin-4-yl)-2-(4-((6-fluoroquinazolin-4-yl)oxy)-3-methylphenyl) acetamide]	54.1
Cc1cc(CC(=O)Nc2cc(C(C)(C)C)cnn2)ccc1Oc1ncnc2ccc(F)cc12 [Compound 55, N-(5-(tert-butyl)pyridazin-3-yl)-2-(4-((6-fluoroquinazolin-4-yl)oxy)-3-methylphenyl) acetamide]	24.5
CCN1CCC(Oc2ccc3ncnc(Oc4cnc(CC(=O)Nc5cnn(C(C)(C)C)c5)c(F)c4)c3c2)CC1 [Compound 56, N-(1-(tert-butyl)-1H-pyrazol-4-yl)-2-(5-((6-((1-ethylpiperidin-4-yl)oxy)quinazolin-4-yl)oxy)-3-fluoropyridin-2-yl)acetamide]	4.9
CN1CCC(Oc2ccc3ncnc(Oc4cnc(CC(=O)Nc5cc(C(C)(C)C)[nH]n5)c(F)c4)c3c2)CC1 [Compound 57, N-(5-(tert-butyl)-1H-pyrazol-3-yl)-2-(3-fluoro-5-((6-((1-methylpiperidin-4-yl)oxy)quinazolin-4-yl)oxy)pyridin-2-yl)acetamide]	< 2.5
CC(C)(C)c1cc(NC(=O)Cc2ncc(Oc3ncnc4ccc(OC5CCNCC5)cc34)cc2F)n[nH]1 [Compound 58, N-(5-(tert-butyl)-1H-pyrazol-3-yl)-2-(3-fluoro-5-((6-(piperidin-4-yloxy)quinazolin-4-yl)oxy)pyridin-2-yl)acetamide]	3.7
CN1CC[C@H](Oc2ccc3ncnc(Oc4cnc(CC(=O)Nc5cnn(C(C)(C)C)c5)c(F)c4)c3c2)C1 [Compound 59, (S)-N-(1-(tert-butyl)-1H-pyrazol-4-yl)-2-(3-fluoro-5-((6-((1-methylpyrrolidin-3-yl)oxy)quinazolin-4-yl)oxy)pyridin-2-yl)acetamide]	41.5
CN1CC[C@@H](Oc2ccc3ncnc(Oc4cnc(CC(=O)Nc5cnn(C(C)(C)C)c5)c(F)c4)c3c2)C1 [Compound 60, (R)-N-(1-(tert-butyl)-1H-pyrazol-4-yl)-2-(3-fluoro-5-((6-((1-methylpyrrolidin-3-yl)oxy)quinazolin-4-yl)oxy)pyridin-2-yl)acetamide]	45.7
CN1CCC(COc2ccc3ncnc(Oc4cnc(CC(=O)Nc5cnn(C(C)(C)C)c5)c(F)c4)c3c2)CC1 [Compound 61, N-(1-(tert-butyl)-1H-pyrazol-4-yl)-2-(3-fluoro-5-((6-((1-methylpiperidin-4-yl)methoxy)quinazolin-4-yl)oxy)pyridin-2-yl)acetamide]	13.3
CN1[C@@H]2CC[C@H]1C[C@@H](Oc1ccc3ncnc(Oc4cnc(CC(=O)Nc5cnn(C(C)(C)C)c5)c(F)c4)c3c1)C2 [Compound 62, N-(1-(tert-butyl)-1H-pyrazol-4-yl)-2-(3-fluoro-5-((6-(((1R,3r,5S)-8-methyl-8-azabicyclo [3.2.1]octan-3-yl)oxy)quinazolin-4-yl)oxy)pyridin-2-yl)acetamide]	13.2
CC(C)(C)n1cc(NC(=O)Cc2ncc(Oc3ncnc4ccc(O[C@@H]5CCOC5)cc34)cc2F)cn1 [Compound 63, (R)-N-(1-(tert-butyl)-1H-pyrazol-4-yl)-2-(3-fluoro-5-((6-((tetrahydrofuran-3-yl)oxy)quinazolin-4-yl)oxy)pyridin-2-yl)acetamide]	37.3
CC(C)(C)n1cc(NC(=O)Cc2ncc(Oc3ncnc4ccc(O[C@H]5CCOC5)cc34)cc2F)cn1 [Compound 64, (S)-N-(1-(tert-butyl)-1H-pyrazol-4-yl)-2-(3-fluoro-5-((6-((tetrahydrofuran-3-yl)oxy)quinazolin-4-yl)oxy)pyridin-2-yl)acetamide]	67.5
CC(C)(C)c1cc(NC(=O)Cc2ccc(Oc3ccnc4ccc(S(C)(=N)=O)cc34)cc2F)[nH]n1 (stereo not shown) [Compound 65, N-(5-(tert-butyl)-1H-pyrazol-3-yl)-2-(2-fluoro-4-((6-(S-methylsulfonimidoyl)quinolin-4-yl)oxy)phenyl) acetamide]	< 2.5
CC(C)(C)n1cc(NC(=O)Cc2ccc(Oc3ccnc4ccc(S5(=O)=NCCC5)cc34)cc2F)cn1 (stereo not shown) [Compound 66, N-(1-(tert-butyl)-1H-pyrazol-4-yl)-2-(2-fluoro-4-((6-(1-oxido-4,5-dihydro-3H-1λ^6-isothiazol-1-yl)quinolin-4-yl)oxy)phenyl) acetamide]	< 2.5
CC(C)(C)n1cc(NC(=O)Cc2ccc(Oc3ccnc4ccc(S5(=O)=NCCCC5)cc34)cc2F)cn1 (stereo not shown) [Compound 67, N-(1-(tert-butyl)-1H-pyrazol-4-yl)-2-(2-fluoro-4-((6-(1-oxido-3,4,5,6-tetrahydro-1λ^6,2-thiazin-1-yl)quinolin-4-yl)oxy)phenyl)acetamide]	< 2.5
CN1CCC(Oc2ccc3nccc(Oc4ccc(CC(=O)Nc5cnn(C(C)(C)C)c5)c(F)c4)c3c2)CC1 [Compound 79, N-(1-(tert-butyl)-1H-pyrazol-4-yl)-2-(2-fluoro-4-((6-((1-methyl-piperidin-4-yl)oxy)quinolin-4-yl)oxy)phenyl) acetamide]	< 2.5
CC(C)(C)n1cc(NC(=O)Cc2ncc(Oc3ccnc4ccc(OC5CCNCC5)cc34)cc2F)cn1 [Compound 80, N-(1-(tert-butyl)-1H-pyrazol-4-yl)-2-(3-fluoro-5-((6-(piperidin-4-yloxy)quinolin-4-yl)oxy)pyridin-2-yl)acetamide]	3.5
CC(C)(C)n1cc(NC(=O)Cc2ccc(Oc3ccnc4ccc(OC5CCNCC5)cc34)cc2F)cn1 [Compound 81, N-(1-(tert-butyl)-1H-pyrazol-4-yl)-2-(2-fluoro-4-((6-(piperidin-4-yloxy)quinolin-4-yl)oxy)phenyl) acetamide]	< 2.5
Cc1cc(CC(=O)Nc2cnn(C(C)(C)C)c2)ccc1Oc1ncnc2ccc(OC3CCNCC3)cc12 [Compound 85, N-(1-(tert-butyl)-1H-pyrazol-4-yl)-2-(3-methyl-4-((6-(piperidin-4-yloxy)quinazolin-4-yl)oxy)phenyl) acetamide]	5.1

Second part, the molecule after the results:

IC50 [nM]	Structure (SMILES)
< 2.5	CC(C)(C)n1cc(NC(=O)Cc2ccc(Oc3ccnc4ccc(NS(C)(=O)=O)cc34)cc2F)cn1 [Compound 68, N-(1-(tert-butyl)-1H-pyrazol-4-yl)-2-(2-fluoro-4-((6-(methylsulfonamido)quinolin-4-yl)oxy)phenyl)acetamide]
9.1	CC(C)(C)n1cc(NC(=O)Cc2ccc(Oc3ccnc4ccc(S(C)(=O)=NC#N)cc34)cc2F)cn1 (stereo not shown) [Compound 71, N-(1-(tert-butyl)-1H-pyrazol-4-yl)-2-(4-((6-(N-cyano-S-methylsulfonimidoyl)quinolin-4-yl)oxy)-2-fluorophenyl)acetamide]
< 2.5	CC(C)(C)n1cc(NC(=O)Cc2ccc(Oc3ccnc4ccc(S(=N)(=O)C5CC5)cc34)cc2F)cn1 (stereo not shown) [Compound 72, N-(1-(tert-butyl)-1H-pyrazol-4-yl)-2-(4-((6-(cyclopropanesulf-onimidoyl)quinolin-4-yl)oxy)-2-fluorophenyl) acetamide]
3.2	CCS(=N)(=O)c1ccc2nccc(Oc3ccc(CC(=O)Nc4cnn(C(C)(C)C)c4)c(F)c3)c2c1 (stereo not shown) [Compound 73, N-(1-(tert-butyl)-1H-pyrazol-4-yl)-2-(4-((6-(ethylsulfonimidoyl)quinolin-4-yl)oxy)-2-fluorophenyl) acetamide]
4	CCS(=O)(=NC)c1ccc2nccc(Oc3ccc(CC(=O)Nc4cnn(C(C)(C)C)c4)c(F)c3)c2c1 (stereo not shown) [Compound 74, N-(1-(tert-butyl)-1H-pyrazol-4-yl)-2-(2-fluoro-4-((6-(N-methylethylsulfonimidoyl)quinolin-4-yl)oxy)phenyl)acetamide]
< 2.5	CC(C)(C)n1cc(NC(=O)Cc2ccc(Oc3ccnc4ccc(CS(C)(=O)=O)cc34)cc2F)cn1 [Compound 75, N-(1-(tert-butyl)-1H-pyrazol-4-yl)-2-(2-fluoro-4-((6-((methylsulfonyl)methyl)quinolin-4-yl)oxy)phenyl)acetamide]
< 2.5	Cc1cc(CC(=O)Nc2cnn(C(C)(C)C)c2)ccc1Oc1ccnc2ccc(S(C)(=N)=O)cc12 (stereo not shown) [Compound 76, N-(1-(tert-butyl)-1H-pyrazol-4-yl)-2-(3-methyl-4-((6-(S-methylsulfonimidoyl)quinolin-4-yl)oxy)phenyl) acetamide]
< 2.5	CN=S(C)(=O)c1ccc2nccc(Oc3ccc(CC(=O)Nc4cnn(C(C)(C)C)c4)cc3C)c2c1 (stereo not shown) [Compound 77, N-(1-(tert-butyl)-1H-pyrazol-4-yl)-2-(4-((6-(N,S-dimethylsulfonimidoyl)quinolin-4-yl)oxy)-3-methylphenyl)acetamide]
< 2.5	Cc1cc(CC(=O)Nc2cc(C(C)(C)C)n[nH]2)ccc1Oc1ccnc2ccc(S(C)(=O)=O)cc12 [Compound 87, N-(5-(tert-butyl)-1H-pyrazol-3-yl)-2-(3-methyl-4-((6-(methylsulfonyl)quinolin-4-yl)oxy)phenyl)acetamide]
< 2.5	Cc1cc(CC(=O)Nc2cc(C(C)(C)C)n[nH]2)ccc1Oc1ccnc2ccc(S(C)(=N)=O)cc12 (stereo not shown) [Compound 88, N-(5-(tert-butyl)-1H-pyrazol-3-yl)-2-(3-methyl-4-((6-(S-methylsulfonimidoyl)quinolin-4-yl)oxy)phenyl)acetamide]
< 2.5	CC(C)(C)n1cc(NC(=O)Cc2ccc(Oc3ccnc4ccc(S(C)(=O)=O)cc34)c(Cl)c2)cn1 [Compound 89, N-(1-(tert-butyl)-1H-pyrazol-4-yl)-2-(3-chloro-4-((6-(methylsulfonyl)quinolin-4-yl)oxy)phenyl)acetamide]
